The target in this test is T1, P2X purinoceptor 4 (Homo sapiens, UniProt Q99571).
T1 sequence (Q99571 whole entry): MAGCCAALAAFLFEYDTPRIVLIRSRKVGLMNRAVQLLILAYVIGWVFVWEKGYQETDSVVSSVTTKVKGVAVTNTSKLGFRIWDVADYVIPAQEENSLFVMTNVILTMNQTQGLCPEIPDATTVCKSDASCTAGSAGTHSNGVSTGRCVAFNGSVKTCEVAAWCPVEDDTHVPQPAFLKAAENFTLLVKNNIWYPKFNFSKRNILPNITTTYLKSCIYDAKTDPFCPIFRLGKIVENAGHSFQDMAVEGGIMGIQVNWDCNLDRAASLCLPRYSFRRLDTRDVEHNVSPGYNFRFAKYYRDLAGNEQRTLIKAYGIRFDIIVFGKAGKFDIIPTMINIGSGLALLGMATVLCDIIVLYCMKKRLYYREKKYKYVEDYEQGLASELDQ
Nature of the test: Inhibition of human P2X4 stably expressed in human HEK293 cells assessed as intracellular calcium flux incubated for 30 mins in presence of agonist Benzoylbenzoyl-ATP by Fluo8-AM dye based FLIPR assay. It counts as cell-based. For orientation: Calcium assays in cells follow changes in intracellular calcium, usually with a dye or a luminescent sensor.

Consider six compounds from ChEMBL document CHEMBL5131526, “Substituted N-Heteroaryl-N-Pyridinylacetamides as P2X4 Modulators for Treating Pain” (ACS Med Chem Lett, 2022).

Turning to `CC(=O)N(c1ccc2ncoc2c1)c1cc(NC(=O)Cc2ccccc2Cl)ccn1`, the IC50 came out at 168 nM.
Consider `CC(=O)N(c1cc(NC(=O)Cc2c(Cl)cccc2Cl)ccn1)c1ccncc1F`, for which the IC50 turned out to be 171 nM.
In the case of `CC(=O)N(c1ccc2ncoc2c1)c1cc(NC(=O)Cc2cccc(F)c2Cl)ccn1`, the IC50 is 143 nM.
For `CC(=O)N(c1ccn2nccc2c1)c1cc(NC(=O)Cc2c(Cl)cccc2Cl)ccn1`, the IC50 is 157 nM.
As to `CC(=O)N(c1ccc2ncsc2c1)c1cc(NC(=O)Cc2ccccc2Cl)ccn1`, the IC50 was 142 nM.
Consider `CC(=O)N(c1ccc2ncoc2c1)c1cc(NC(=O)Cc2c(Cl)cccc2Cl)ccn1`, for which the IC50 was found to be 141 nM.

Usually IC50 stands for the concentration at which inhibition is half-maximal.
